In US4195171A, “Derivatives of an antibiotic XK-62-2 and process for the production thereof” (Abbott Laboratories, priority 1975, dated 1980):
In brackets after ≈: the same amount, converted by molar mass. Read-outs that look alike come from different tables or passages of the source.

Legend:
Experiment in all cases: Antibacterial spectrum, MIC by agar dilution method
Format in all cases: cell-based
[1] = tested on: Pseudomonas aeruginosa KY 8512; conditions: KY8512, pH 7.2, strain produces neomycinkanamycin phosphotransferase Type I and Type II, read-out: Minimum Inhibitory Concentration
Text: (§1) XK-62-2, 1-N-[L-(-)-α-hydroxy-γ-aminobutyryl] XK-62-2, Compounds (I-1), (I-2), (II-1) and (II-2) against various Gram-negative and Gram-positive bacteria determined by agar dilution method at pH 7.2.
(§2) ^6 produces neomycinkanamycin phosphotransferase Type I and Type II

[2] = tested on: Pseudomonas aeruginosa KY 8519; conditions: KY8519, agar dilution, pH 7.2, strain produces neomycinkanamycin phosphotransferase Type I and Type II, read-out: Minimum Inhibitory Concentration
Text: as §1, §2

[3] = tested on: Streptococcus faecalis ATCC 10541; conditions: Enterococcus faecalis, ATCC10541, pH 7.2, read-out: Minimum Inhibitory Concentration
Text: as §1

[4] = tested on: Salmonella typhimurium E-9; conditions: Salmonella enterica, pH 7.2, read-out: Minimum Inhibitory Concentration
Text: as §1

[5] = tested on: Pseudomonas aeruginosa BMH 1; conditions: BMH1, pH 7.2, read-out: Minimum Inhibitory Concentration
Text: as §1

[6] = tested on: Pseudomonas aeruginosa NC-5
Text: as §1

[7] = tested on: Pseudomonas aeruginosa No. 12; conditions: pH 7.2, read-out: Minimum Inhibitory Concentration
Text: as §1

[8] = tested on: Salmonella enteritidis G-14; conditions: Salmonella enterica, pH 7.2, read-out: Minimum Inhibitory Concentration
Text: as §1

[9] = tested on: Staphylococcus aureus Smith; conditions: pH 7.2, read-out: Minimum Inhibitory Concentration
Text: as §1

[10] = tested on: Pseudomonas aeruginosa E-2
Text: as §1

Proteus rettgeri KY 4288 = conditions: Providencia rettgeri, KY4288, pH 7.2, read-out: Minimum Inhibitory Concentration
Text: as §1

Proteus vulgaris 6897 = conditions: pH 7.2, read-out: Minimum Inhibitory Concentration
Text: as §1

Sarcina lutea ATCC 9341 = conditions: Micrococcus luteus, ATCC9341, pH 7.2, read-out: Minimum Inhibitory Concentration
Text: as §1

Escherichia coli T-5 = tested on: Escherichia coli T-5
Text: as §1

[11] = tested on: Klebsiella pneumoniae No. 8045; conditions: pH 7.2, read-out: Minimum Inhibitory Concentration
Text: as §1

[12] = tested on: bacillus subtilis ATCC 6633; conditions: ATCC6633, pH 7.2, read-out: Minimum Inhibitory Concentration
Text: as §1

Escherichia coli Juhl = conditions: pH 7.2, read-out: Minimum Inhibitory Concentration
Text: as §1

[13] = tested on: Staphylococcus aureus 209 P; conditions: pH 7.2, read-out: Minimum Inhibitory Concentration
Text: as §1

[14] = tested on: Shigella sonnei ATCC 9290; conditions: ATCC9290, pH 7.2, read-out: Minimum Inhibitory Concentration
Text: as §1

Proteus morganii KY 4298 = conditions: Morganella morganii
Text: as §1

Serratia sp T-55 = conditions: T55, agar dilution, pH 7.2, read-out: Minimum Inhibitory Concentration
Text: as §1

[15] = tested on: Klebsiella pneumoniae Y-60; conditions: Y60, pH 7.2, strain produces gentamicin adenyltransferase, read-out: Minimum Inhibitory Concentration
Text: as §1
(§3) ^4 produces gentamicin adenyltransferase

[16] = tested on: Klebsiella pneumoniae Y-58; conditions: Y58, pH 7.2, strain produces gentamicin adenyltransferase, read-out: Minimum Inhibitory Concentration
Text: as §1, §3

[17] = tested on: Escherichia coli KY Z-338; conditions: KYZ338, pH 7.2, strain produces gentamicin adenyltransferase, read-out: Minimum Inhibitory Concentration
Text: as §1, §3

Escherichia coli KY 8321 = conditions: KY8321, pH 7.2, strain produces gentamicin adenyltransferase and neomycinkanamycin phosphotransferase Type II, read-out: Minimum Inhibitory Concentration
Text: as §1
^5 produces gentamicin adenyltransferase and neomycinkanamycin
phosphotransferase Type II

[18] = tested on: Pseudomonas aeruginosa KY Z-444
Text: as §1
(§4) ^8 produces 6N-acetyltransferase Type III

[19] = tested on: Pseudomonas aeruginosa Z-445; conditions: Z445, pH 7.2, strain produces 6N-acetyltransferase Type III, read-out: Minimum Inhibitory Concentration
Text: as §1, §4

[20] = tested on: Pseudomonas aeruginosa KY 8510
Text: as §1
(§5) ^1 produces kanamycin acetyltransferase

[21] = tested on: Serratia marcescens POE 1065
Text: as §1, §5

[22] = tested on: Pseudomonas aeruginosa KY 8516
Text: as §1, §5

[23] = tested on: Escherichia coli KY Z-343; conditions: KYZ343, pH 7.2, strain produces kanamycin acetyltransferase, read-out: Minimum Inhibitory Concentration
Text: as §1, §5

[24] = tested on: Pseudomonas aeruginosa KY 8563
Text: as §1
^7 produces gentamicin acetyltransferase Type III

[25] = NC5, pH 7.2, read-out: Minimum Inhibitory Concentration
[26] = E2, pH 7.2, read-out: Minimum Inhibitory Concentration
[27] = T5, agar dilution, pH 7.2, read-out: Minimum Inhibitory Concentration
[28] = KYZ444, agar dilution, pH 7.2, strain produces 6N-acetyltransferase Type III, read-out: Minimum Inhibitory Concentration
[29] = KY4298, agar dilution, pH 7.2, read-out: Minimum Inhibitory Concentration
[30] = KY8510, agar dilution, pH 7.2, strain produces kanamycin acetyltransferase, read-out: Minimum Inhibitory Concentration
[31] = POE1065, agar dilution, pH 7.2, strain produces kanamycin acetyltransferase, read-out: Minimum Inhibitory Concentration
[32] = KY8516, agar dilution, pH 7.2, strain produces kanamycin acetyltransferase, read-out: Minimum Inhibitory Concentration
[33] = KY8563, agar dilution, pH 7.2, strain produces gentamicin acetyltransferase Type III, read-out: Minimum Inhibitory Concentration

Structure (SMILES) | MIC [1] [µg/mL] | MIC [2] [µg/mL] | MIC [3] [µg/mL] | MIC [4] [µg/mL] | MIC [5] [µg/mL] | MIC [7] [µg/mL] | MIC [9] [µg/mL] | MIC (Proteus rettgeri KY 4288) [µg/mL] | MIC (Proteus vulgaris 6897) [µg/mL] | MIC (Sarcina lutea ATCC 9341) [µg/mL] | MIC [11] [µg/mL] | MIC [12] [µg/mL] | MIC [13] [µg/mL] | MIC [14] [µg/mL] | MIC (Serratia sp T-55) [µg/mL] | MIC [15] [µg/mL] | MIC [16] [µg/mL] | MIC [17] [µg/mL] | MIC (Escherichia coli KY 8321) [µg/mL] | MIC [19] [µg/mL] | also measured
CNCC1CCC(N)C(OC2C(N)CC(NC(=O)C(O)CN)C(OC3OCC(C)(O)C(N)C3O)C2O)O1 (racemic) [II-1, 3"-N-demethyl-1-N-(DL-α-hydroxy-β-aminopropionyl) XK-62-2] | 1.56 (≈ 2.91 µM) | 6.25 (≈ 11.6 µM) | 25 (≈ 46.6 µM) | 0.78 (≈ 1.45 µM) | 1.56 (≈ 2.91 µM) | 0.78 (≈ 1.45 µM) | 0.4 (≈ 0.745 µM) | 1.56 (≈ 2.91 µM) | 12.5 (≈ 23.3 µM) | 1.56 (≈ 2.91 µM) | 0.78 (≈ 1.45 µM) | 0.2 (≈ 0.373 µM) | 0.4 (≈ 0.745 µM) | 3.12 (≈ 5.81 µM) | 1.56 (≈ 2.91 µM) | 1.56 (≈ 2.91 µM) | 0.78 (≈ 1.45 µM) | 0.78 (≈ 1.45 µM) | 1.56 (≈ 2.91 µM) | 6.25 (≈ 11.6 µM) | MIC [6, 25]: 3.12 µg/mL (≈ 5.81 µM); MIC [8]: 3.12 µg/mL (≈ 5.81 µM); MIC [10, 26]: 3.12 µg/mL (≈ 5.81 µM); MIC (Escherichia coli T-5; [27]): 1.56 µg/mL (≈ 2.91 µM); MIC (Escherichia coli Juhl): 3.12 µg/mL (≈ 5.81 µM); MIC (Proteus morganii KY 4298; KY4298, pH 7.2, read-out: Minimum Inhibitory Concentration): 3.12 µg/mL (≈ 5.81 µM); MIC [18, 28]: 1.56 µg/mL (≈ 2.91 µM); MIC ([20]; KY8510, pH 7.2, read-out: Minimum Inhibitory Concentration): 3.12 µg/mL (≈ 5.81 µM); MIC ([21]; POE1065, pH 7.2, read-out: Minimum Inhibitory Concentration): 3.12 µg/mL (≈ 5.81 µM); MIC ([22]; KY8516, pH 7.2, read-out: Minimum Inhibitory Concentration): 3.12 µg/mL (≈ 5.81 µM); MIC [23]: 0.4 µg/mL (≈ 0.745 µM); MIC ([24]; KY8563, pH 7.2, read-out: Minimum Inhibitory Concentration): 3.12 µg/mL (≈ 5.81 µM)
CNCC1CCC(N)C(OC2C(N)CC(NC(=O)C(O)CCN)C(OC3OCC(C)(O)C(NC)C3O)C2O)O1 (single isomer, unassigned) [1-N-[L-(-)-α-hydroxy-γ-aminobutyryl] XK-62-2, reference compound] | 1.56 (≈ 2.76 µM) | 6.25 (≈ 11.1 µM) | 6.25 (≈ 11.1 µM) | 0.2 (≈ 0.354 µM) | 0.78 (≈ 1.38 µM) | 0.4 (≈ 0.708 µM) | 0.1 (≈ 0.177 µM) | 0.78 (≈ 1.38 µM) | 1.56 (≈ 2.76 µM) | 0.2 (≈ 0.354 µM) | 0.2 (≈ 0.354 µM) | 0.1 (≈ 0.177 µM) | 0.4 (≈ 0.708 µM) | 0.78 (≈ 1.38 µM) | 0.78 (≈ 1.38 µM) | 0.2 (≈ 0.354 µM) | 0.2 (≈ 0.354 µM) | 0.2 (≈ 0.354 µM) | 0.2 (≈ 0.354 µM) | 6.25 (≈ 11.1 µM) | MIC ([6]; NC5, agar dilution, pH 7.2, read-out: Minimum Inhibitory Concentration): 3.12 µg/mL (≈ 5.53 µM); MIC ([8]; agar dilution): 3.12 µg/mL (≈ 5.53 µM); MIC ([10]; E2, agar dilution, pH 7.2, read-out: Minimum Inhibitory Concentration): 3.12 µg/mL (≈ 5.53 µM); MIC (Escherichia coli T-5; [27]): 0.4 µg/mL (≈ 0.708 µM); MIC (Escherichia coli Juhl; agar dilution): 0.4 µg/mL (≈ 0.708 µM); MIC (Proteus morganii KY 4298; [29]): 0.78 µg/mL (≈ 1.38 µM); MIC [18, 28]: 1.56 µg/mL (≈ 2.76 µM); MIC [20, 30]: 3.12 µg/mL (≈ 5.53 µM); MIC [21, 31]: 0.78 µg/mL (≈ 1.38 µM); MIC [22, 32]: 3.12 µg/mL (≈ 5.53 µM); MIC [23]: 0.1 µg/mL (≈ 0.177 µM); MIC [24, 33]: 6.25 µg/mL (≈ 11.1 µM)
CC1(O)COC(OC2C(NC(=O)C(O)CCN)CC(N)C(OC3OC(CN)CCC3N)C2O)C(O)C1N (single isomer, unassigned) [Compound I-2, 3"-N, 6'-N-didemethyl-1-N-[L-(-)-α-hydroxy-γ-aminobutyryl] XK-62-2] | 0.78 (≈ 1.45 µM) | 3.12 (≈ 5.81 µM) | 12.5 (≈ 23.3 µM) | 0.4 (≈ 0.745 µM) | 0.78 (≈ 1.45 µM) | 0.4 (≈ 0.745 µM) | 0.2 (≈ 0.373 µM) | 0.78 (≈ 1.45 µM) | 3.12 (≈ 5.81 µM) | 0.78 (≈ 1.45 µM) | 0.78 (≈ 1.45 µM) | 0.1 (≈ 0.186 µM) | 0.2 (≈ 0.373 µM) | 1.56 (≈ 2.91 µM) | 3.12 (≈ 5.81 µM) | 0.78 (≈ 1.45 µM) | 0.78 (≈ 1.45 µM) | 0.4 (≈ 0.745 µM) | 0.78 (≈ 1.45 µM) | 6.25 (≈ 11.6 µM) | MIC [6, 25]: 1.56 µg/mL (≈ 2.91 µM); MIC ([8]; agar dilution): 12.5 µg/mL (≈ 23.3 µM); MIC [10, 26]: 1.56 µg/mL (≈ 2.91 µM); MIC (Escherichia coli T-5; T5, pH 7.2, read-out: Minimum Inhibitory Concentration): 1.56 µg/mL (≈ 2.91 µM); MIC (Escherichia coli Juhl): 1.56 µg/mL (≈ 2.91 µM); MIC (Proteus morganii KY 4298; [29]): 0.78 µg/mL (≈ 1.45 µM); MIC ([18]; KYZ444, pH 7.2, read-out: Minimum Inhibitory Concentration): 1.56 µg/mL (≈ 2.91 µM); MIC [20, 30]: 12.5 µg/mL (≈ 23.3 µM); MIC [21, 31]: 25 µg/mL (≈ 46.6 µM); MIC [22, 32]: 25 µg/mL (≈ 46.6 µM); MIC [23]: 0.2 µg/mL (≈ 0.373 µM); MIC [24, 33]: 3.12 µg/mL (≈ 5.81 µM)
